Source: article PMC9796130, “The First Structure of Human MTHFD2L and Its Implications for the Development of Isoform‐Selective Inhibitors” (Chemmedchem, 2022)

Molecular target: T1, MTHFD2L (Homo sapiens, UniProt Q9H903)
T1 construct: amino acids 50–347, His-tagged
T1 sequence (Q9H903 50-347): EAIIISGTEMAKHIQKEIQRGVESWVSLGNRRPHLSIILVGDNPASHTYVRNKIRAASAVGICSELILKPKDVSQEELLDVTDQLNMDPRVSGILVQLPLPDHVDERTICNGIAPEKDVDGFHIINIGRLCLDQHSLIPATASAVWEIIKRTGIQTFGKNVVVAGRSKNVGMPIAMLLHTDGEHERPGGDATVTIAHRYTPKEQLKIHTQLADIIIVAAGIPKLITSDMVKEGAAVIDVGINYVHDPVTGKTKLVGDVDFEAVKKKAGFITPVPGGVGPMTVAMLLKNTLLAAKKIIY
Test: X-ray co-crystal structure ([…] Å); IC50 on purified enzyme by NAD(P)H-Glo luminescence assay
Format: biochemical

Nc1nc(N)c(NC(=O)Nc2ccc(C(=O)NC(CCC(=O)O)C(=O)O)cc2)c(O)n1 (stereo not shown) [TH7299]
IC50: 174 nM
